Data: paper PMC3635066 (Journal of medicinal chemistry, 2012)

Key:
recombinant CpIMPDH = target: T1, recombinant CpIMPDH (Cryptosporidium parvum, UniProt Q8T6T2); assay: biochemical; type: biochemical; conditions: for increase in potency: relative to compound 1
T1 sequence (Q8T6T2 1-400): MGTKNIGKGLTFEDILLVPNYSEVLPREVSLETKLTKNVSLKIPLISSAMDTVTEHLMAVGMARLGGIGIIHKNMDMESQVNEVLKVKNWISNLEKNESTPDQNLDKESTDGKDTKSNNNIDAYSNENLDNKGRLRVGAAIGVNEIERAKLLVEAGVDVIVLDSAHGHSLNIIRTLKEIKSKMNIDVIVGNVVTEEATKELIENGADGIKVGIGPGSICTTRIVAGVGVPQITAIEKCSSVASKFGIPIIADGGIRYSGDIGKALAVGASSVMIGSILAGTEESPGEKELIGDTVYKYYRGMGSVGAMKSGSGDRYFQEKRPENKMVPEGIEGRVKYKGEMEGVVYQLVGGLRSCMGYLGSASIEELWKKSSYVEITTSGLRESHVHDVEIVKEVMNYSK

[1] = Mouse liver microsomal stability; type: in vitro ADME

| CpIMPDH inhibitory activity (in words) (recombinant CpIMPDH) | Compound | further results |
| --- | --- | --- |
| complete loss of inhibitory activity | CC(C)(NC(=O)Nc1ccc(Cl)cc1)c1ccc(-c2ccccc2)cc1 [Compound 36b, 1-(2-([1,1′-Biphenyl]-4-yl)propan-2-yl)-3-(4-chlorophenyl)urea] | – |
| – | CC(=O)c1cccc(C(C)(C)NC(=O)Nc2ccc(Cl)c(C(N)=O)c2)c1 [Compound 6c, 5-(3-(2-(3-acetylphenyl)propan-2-yl)ureido)-2-chlorobenzamide] | mouse liver microsomal stability (in words) [1]: very resistant to oxidative degradation in microsomes |
| – | CO/N=C(\C)c1cccc(C(C)(C)NC(=O)Nc2ccc(Cl)c(C(F)(F)F)c2)c1 [Compound 8a, (E)-1-(4-Chloro-3-(trifluoromethyl)phenyl)-3-(2-(3-(1-(methoxyimino)ethyl)phenyl)propan-2-yl)urea] | mouse liver microsomal stability (in words) [1]: less stable |
| – | C=C(C)c1cccc(C(C)(C)NC(=O)Nc2cccc(Cl)c2)c1 [Compound 5d, 1-(3-Chlorophenyl)-3-(2-(3-(prop-1-en-2-yl)phenyl)propan-2-yl)urea] | loss of activity (recombinant CpIMPDH; relative to 5b): 3 fold |
| complete loss of inhibitory activity | CC(C)c1cccc(C(C)(C)NC(=O)Nc2ccc3ccccc3c2)c1 [Compound 11, 1-(2-(3-Isopropylphenyl)propan-2-yl)-3-(naphthalen-2-yl)urea] | – |
| – | C/C(=N\OCCN)c1cccc(C(C)(C)NC(=O)Nc2ccc(Cl)c([N+](=O)[O-])c2)c1 [Compound 9, (E)-1-(2-(3-(1-((2-aminoethoxy)imino)ethyl)phenyl)propan-2-yl)-3 (4-chloro-3-nitrophenyl)urea] | mouse liver microsomal stability (in words) [1]: excellent mouse liver microsomal stability |
| complete loss of activity | CC(=O)c1cccc(CNC(=O)Nc2ccc(Cl)cc2)c1 [Compound 23, 1-(3-Acetylbenzyl)-3-(4-chlorophenyl) urea] | – |
| – | CC(=O)c1cccc(C(C)(C)OC(=O)Nc2ccc(Cl)cc2)c1 [Compound 28, 2-(3-Acetylphenyl) propan-2-yl (4-chlorophenyl)carbamate] | reduction in activity (recombinant CpIMPDH; relative to 6a): 2 fold |
| complete loss of inhibitory activity | CC(C)(NC(=O)Nc1ccc2[nH]c(=O)[nH]c2c1)c1ccccc1 [Compound 38, 1-(2-Oxo-2,3-dihydro-1H-benzo[d]imidazol-5-yl)-3-(2-phenylpropan 2 yl)urea] | – |
| – | C=C(C)c1cccc(C(C)(C)NC(=O)Nc2ccc(Br)cc2)c1 [Compound 5c, 1-(4-Bromophenyl)-3-(2-(3-(prop-1-en-2-yl)phenyl)propan-2-yl)urea] | increase in potency (recombinant CpIMPDH): 32 fold |
| lacking activity | C=C(C)c1cccc(C(C)(C)NC(=O)Nc2ccc(C(C)(C)C)cc2)c1 [Compound 5g, 1-(4-(tert-Butyl)phenyl)-3-(2-(3-(prop-1-en-2-yl)phenyl)propan-2-yl)urea] | – |
| – | C=C(C)c1cccc(C(C)(C)NC(=O)Nc2ccc(Cl)cc2)c1 [Compound 5b, 1-(4-chlorophenyl)-3-(2-(3-(prop-1-en-2-yl)phenyl)propan-2-yl)urea] | increase in potency (recombinant CpIMPDH): 16 fold |
| – | C/C(=N\O)c1cccc(C(C)(C)NC(=O)Nc2ccc(Cl)c(C(N)=O)c2)c1 [Compound 7c, (E) 2 chloro 5-(3-(2-(3-(1-(hydroxyimino)ethyl)phenyl)propan-2-yl)ureido)benzamide] | IC50 (recombinant CpIMPDH): ≤ 1 nM |
| completely inactive | C=C(C)c1cccc(C(C)(C)NC(=O)Nc2ccccc2Cl)c1 [Compound 5e, 1-(2-Chlorophenyl)-3-(2-(3-(prop-1-en-2-yl)phenyl)propan-2-yl)urea] | – |

| Compound | CpIMPDH inhibitory activity (in words) (recombinant CpIMPDH) | further results |
| --- | --- | --- |
| CC(O)c1cccc(C(C)(C)NC(=O)Nc2ccc(Cl)cc2)c1 (stereo not shown) [Compound 10, 1-(4-chlorophenyl)-3-(2-(3-(1-hydroxyethyl)phenyl)propan-2-yl)urea] | moderate activity | – |
| CC(C)(NC(=O)Nc1ccc(Cl)c(C(N)=O)c1)c1cccc(-c2ccccc2)c1 [Compound 36a, 5-(3-(2-([1, 1′-biphenyl]-3-yl)propan-2-yl)ureido)-2-chlorobenzamide] | retained potent activity | – |
